Consider one substance from US20120308554A1, “VEGF-D/VEGFR2/3-MEDIATED REGULATION OF DENDRITES” (UNIVERSITAT HEIDELBERG, priority 2011, published 2012).

What all share (type): cell-based, mice
For one data set, the system named is hippocampal neurons. The data set can be described thus: Morphometric analyses (total dendritic length, Sholl analysis, spine density) of cultured hippocampal neurons. On the procedure:
Hippocampal neurons from newborn C57BL/6 mice were cultured as known in the art. Experiments were done after a culturing period of 10 to 14 days in vitro (DIV). DNA transfection was done on DIV8 using Lipofectamine 2000 (Invitrogen, San Diego, Calif.). For the studies on dendrite morphology, neurons were analyzed 4-5 days after transfection.
For 3D Sholl Analysis, total dendritic length and spine morphology were calculated using Object-Image freeware software with a specific set of macros (written by Dr. E. Ruthazer, McGill University, Quebec). Briefly, a z-Stack acquisition was imported, calibrated in Object-Image and manually traced. Total dendritic length was then computed. For Sholl analysis, the shell interval was set at 5 μm. All analyses were performed blind. In all in vitro experiments, for each condition, a minimum of 12 neurons from three independent preparations was analyzed. For the Golgi staining quantifications of 20 neurons for each condition from 4 different injected animals per viral construct were traced and analyzed.
Hippocampal neurons were fixed with 4% paraformaldehyde at room temperature for 20 min. For immunostaining, primary and secondary antibodies were applied in GDB buffer (30 mM phosphate buffer [pH7.4] containing 0.2% gelatin, 0.5% Triton X-100, and 0.9 M NaCl). For the morphometric analyses, fluorescence images were acquired using a confocal laser-scanning microscope TCS SP2 (Leica, Mannheim, Germany) equipped with an inverted fluorescence microscope DM IRE2 (Leica) and Leica confocal scan software. All images were obtained with sequential acquisition setting at a resolution of 1024×1024 pixels. Each image was a z series projection of images taken at 1 μm intervals.

Data set [1] concerns VEGFD, VEGF, VEGFC and VEGFR3. The data set can be described thus: qRT-PCR analysis of shRNA knock-down of VEGF family members. The following applies: hippocampal neurons infected with rAAV. The method, then:
Total RNA was isolated at DIV10 to DIV13 from hippocampal primary neuron cultures or isolated brain tissues with Rneasy Mini Kit (Qiagen, Hilden, Germany) including an optional Dnase I treatment at room temperature for 15 min according to manufacturer's instructions (Qiagen). 1.2 μg of extracted RNA was reverse transcribed into first strand cDNA using High Capacity cDNA Reverse Transcription kit (Applied Biosystems, Foster City, Calif.). Quantitative reverse transcriptase PCR (qRT-PCR) was done on an ABI7300 thermal cycler using Universal qRT-PCR master mix with TaqMan Gene Expression Assays for the indicated genes (Applied Biosystems). The following TaqMan Gene Expression Assays were used in this study: Gusb (Mm00446953_m1), cFos (Mm00487425_m1), VEGFD (Mm00438965_m1), VEGFC (Mm01202432_m1), VEGF (Mm01281449_m1), VEGFR3 (Mm01292618_m1), beta-actin (Mm00607939_s1), beta-2 microglobulin (Mm00437762_m1), CBP (Mm01342435_m1), p38 MAPK alpha (Mm00442497_m1), p38 MAPK beta (Mm00440955_m1). Expression of target genes was normalized against the expression of Gusb as endogenous control gene. Data were derived from at least 5 independent experiments. For expression of shRNAs, an rAAV vector containing the U6 promoter for shRNA expression and a CaMKII promoter driving mCherry expression was used. Three different sequences were obtained from Open Biosystems ([…] 2 and […] 3), cloned and tested for silencing efficiency. […] As control, a scramble version of this sequence ([…] ID NO: 2) and the vector carrying only the mCherry ([…]) were used. Shp38alpha [NT] ID NO: 3), shp38beta [NT] ID NO: 4), […] ID NO: 5), […] ID NO: 6) and […] ID NO: 7; sequence obtained from Open Biosystems www.openbiosystems.com) were also cloned into the same vector. CBP expression level was knocked down using a pool of four short interfering RNAs (siRNAs) targeting mouse CBP (Accell siRNA SMARTpool; Thermo Scientific Dharmacon). The SMARTpool is a group of four siRNAs that have been screened to reduce a variety of potential off-target effects including the inclusion of miRNA (microRNA)-like seed motifs. Silencing of GAPDH was measured using Accell mouse GAPDH as a positive control, and as a negative control, a non-targeting Accell mouse siRNA pool was used. In addition, a fluorescently labeled non-targeting Accell mouse siRNA was also used to evaluate penetration efficiency in hippocampal neurons via immunocytochemistry. Briefly, 500 nM siRNAs were supplemented in the serum-free culturing medium at DIV8, and mRNA levels were analyzed at DIV13.
A general note: Real-time PCR tracks product formation cycle by cycle.

In another data set the test system is VEGFD. The data set can be described thus: Immunoblot analysis of VEGFD expression in hippocampal neurons. Particulars: hippocampal neurons infected with rAAV. An excerpt:
C: Immunoblot analysis of VEGFD expression in uninfected hippocampal neurons and in hippocampal neurons infected with the indicated rAAVs. Tubulin was used for loading control. Neurons infected with rAAV-emptymC, rAAV-shVEGFD and rAAV-shSCR were detected by DsRed immunostaining (see above).
Mouse monoclonal antibody to tubulin (Sigma); mouse monoclonal NeuN antibody (Chemicon); mouse monoclonal anti-phospho-p38 MAP kinase antibody (BD); rabbit polyclonal antibodies to the HA tag, anti-VEGFD antibodies, anti-VEGFR3 (Santa Cruz); rabbit polyclonal antibody to phosphor-CREB (Upstate-Millipore); rabbit polyclonal antibody to phosphor-CaMKII (Promega); rabbit polyclonal antibodies to phosphor-MSK1, phosphor-ATF2, phosphor-ERK, phosphor-Akt, phosphor-MKK4, phosphor-JNK, phosphor-p70, phosphor-GSKα/β (Cell Signaling). Rabbit polyclonal antibodies to DsRed (Clontech). AlexaFluor 488-, AlexaFluor 594-, and AlexaFluor 633-labled secondary antibodies were from Molecular Probes (Eugene, Oreg., USA).
For orientation: A western blot detects proteins with antibodies after separation by electrophoresis.

“shVEGFD: shRNA targeting mouse VEGFD mRNA (GGGCTTCAGGAGCGAACAT; SEQ ID NO: 1), expressed from rAAV vector or plasmid with U6 promoter”: the “total dendritic length and dendritic complexity (Sholl analysis)” value with hippocampal neurons (neurons expressing the construct versus control constructs) was “less complex dendritic arbor and a reduction in total dendritic length”. Further, the “spine density (number of spines/20 μm)” value with hippocampal neurons (transfected hippocampal neurons) is reported as 6.52±0.51 spines/20 μm. For the same substance, in data set [1], the “mRNA levels of respective targets” value is “reduced mRNA levels of their respective targets”. For the same substance, the “VEGFD protein expression (immunoblot)” value in the data set with VEGFD was “blocked VEGFD protein expression”.
